DC50 and Dmax data for ten compounds are collected here from patent publication US20250059198A1, “BRM DEGRADING COMPOUNDS AND ASSOCIATED METHODS OF USE” (Arvinas Operations, Inc., priority 2021, published 2025).

Structures are written as SMILES.

This test concerns the target T1, BRM (Homo sapiens, UniProt P51531).
T1 construct: Western Blot Screen of BRM Degradation in SW1573 Cells; endogenous in cells; host or cells: SW1573 cells
The test can be described thus: BRM degradation (Dmax and DC50) in SW1573 cells, Western blot screen / In-Cell Western screen. To be noted: overnight (18-20 hours) treatment; for Dmax: read-out: Dmax (%)** (% degraded). It counts as cell-based. How it is done: To assess BRM degradation (Dmax and DC50) cells were seeded at 8000/well in 96-well black/clear-bottom plates in 180 μL DMEM growth media (containing 1% pen-strep, 1% HEPES and 10% FBS) per well. Plates were incubated overnight to allow adhesion. The next morning cells were treated by adding 20 μL of 10× target compound concentration (1% DMSO) to appropriate wells and returned to incubator for overnight (18-20 hours). The final DMSO concentration was 0.1%.
For lysing, adherent cells were washed once with 100 μL of DPBS. Cells were lysed in 40 μL of 1×RIPA+HALT protease inhibitor on ice for 10 minutes and frozen until use at −80° C. Thawed lysates were cleaned by filtration in 1.2 µm filter plates, or alternatively, were spun clean at 2300 g at 4° C. for 30 minutes.
For blotting, for each Western sample 30 μL of lysate was added to 10 μL of 4× LDS sample buffer, then denatured at 95° C. for 5 minutes in the thermal cycler and placed on ice. Samples were loaded on 4-15% Tris/Glycine gels and run for 25 minutes at 250 constant volts in 1× Tris/Glycine buffer with 4 μL of ladder and 12 μL of each sample loaded for each blot. Protein was transferred from gels to NC with BioRad Turbo dry-transfer unit with the Turbo/midi default program. All blots were rinsed with ddH2O and blocked for 1 hour at room temperature in 5% BSA in TBST (0.1%) on rocker. Blots were exposed to primary antibody in 5% BSA in TBST (0.1%) overnight at 4° C. on rocker (1:1000 for BRM (Cell Signaling Tech. cat #11966) and 1:2000 for alpha-tubulin (Cell Signaling Tech. cat #3873), a control protein. Blot was washed with TBST (0.1%) three times for 5 minutes on rocker at room temperature. Secondary antibody was added, and blots were incubated on a room temperature rocker for 1 hour with 1:18,000 anti-rabbit-HRP and/or anti-mouse-HRP in 5% BSA in TBST (0.1%). Blots were washed three times in TBST (0.1%) for 5 minutes at room temperature on the rocker. Signal was developed with Femto Maximum Sensitivity substrate for 4 minutes and blots read on ChemiDoc™.
To assess BRM degradation (Dmax and DC50), cells were seeded at 8000/well in 96-well black/clear-bottom plates in 180 μL DMEM growth media (containing 1% pen-strep, 1% HEPES and 10% FBS) per well. Plates were incubated overnight to allow adhesion. The next morning cells were treated by adding 20 μL of 10× compound (1% DMSO) to appropriate wells and returned to incubator for overnight (18-20 hours). The final DMSO concentration was 0.1%.
For processing, the plates were removed from incubator, the media was removed, and immediately 200 μL of cold (4° C.) DPBS was added to all wells. DPBS was then removed, and 50 μL of 4% paraformaldehyde (PFA) in DPBS (4° C.) was added to all wells, and the plates were incubated at room temperature for 20 minutes. PFA was then removed, and 200 μL of TBS-T containing 0.5% Triton X-100 was added to all wells, and the plates were incubated at room temperature for 30 minutes. TBS-T containing 0.5% Triton X-100 was then removed, and 50 μL of Li-Cor blocking solution was added, and the plates were incubated at room temperature for a minimum of one hour. The blocking solution was removed, and 50 μL of Li-Cor blocking solution containing primary antibody cocktail was added (1:1000 for BRM (Cell Signaling Tech. cat #11966) and 1:2000 for alpha-tubulin (Sigma cat #T6074), a control protein. Plates were then placed in cold room until the next day.
The next day plates were washed three times with TBS-T, 200 μL per well. Fifty […] of secondary antibody cocktail in LI-COR blocking solution (anti-rabbit_800 nm and anti-mouse_680 nm) was added to all wells (diluted 1:5000). The plates were incubated at room temperature for at least one hour while protected from light. The plates were washed twice with TBS-T, 200 μL per well.
To read each plate TBS-T was removed, and each plate was inverted tapped on a paper towel. […]
(In general: In western blotting, separated proteins are transferred to a membrane and probed.)

T1 sequence (P51531 whole entry): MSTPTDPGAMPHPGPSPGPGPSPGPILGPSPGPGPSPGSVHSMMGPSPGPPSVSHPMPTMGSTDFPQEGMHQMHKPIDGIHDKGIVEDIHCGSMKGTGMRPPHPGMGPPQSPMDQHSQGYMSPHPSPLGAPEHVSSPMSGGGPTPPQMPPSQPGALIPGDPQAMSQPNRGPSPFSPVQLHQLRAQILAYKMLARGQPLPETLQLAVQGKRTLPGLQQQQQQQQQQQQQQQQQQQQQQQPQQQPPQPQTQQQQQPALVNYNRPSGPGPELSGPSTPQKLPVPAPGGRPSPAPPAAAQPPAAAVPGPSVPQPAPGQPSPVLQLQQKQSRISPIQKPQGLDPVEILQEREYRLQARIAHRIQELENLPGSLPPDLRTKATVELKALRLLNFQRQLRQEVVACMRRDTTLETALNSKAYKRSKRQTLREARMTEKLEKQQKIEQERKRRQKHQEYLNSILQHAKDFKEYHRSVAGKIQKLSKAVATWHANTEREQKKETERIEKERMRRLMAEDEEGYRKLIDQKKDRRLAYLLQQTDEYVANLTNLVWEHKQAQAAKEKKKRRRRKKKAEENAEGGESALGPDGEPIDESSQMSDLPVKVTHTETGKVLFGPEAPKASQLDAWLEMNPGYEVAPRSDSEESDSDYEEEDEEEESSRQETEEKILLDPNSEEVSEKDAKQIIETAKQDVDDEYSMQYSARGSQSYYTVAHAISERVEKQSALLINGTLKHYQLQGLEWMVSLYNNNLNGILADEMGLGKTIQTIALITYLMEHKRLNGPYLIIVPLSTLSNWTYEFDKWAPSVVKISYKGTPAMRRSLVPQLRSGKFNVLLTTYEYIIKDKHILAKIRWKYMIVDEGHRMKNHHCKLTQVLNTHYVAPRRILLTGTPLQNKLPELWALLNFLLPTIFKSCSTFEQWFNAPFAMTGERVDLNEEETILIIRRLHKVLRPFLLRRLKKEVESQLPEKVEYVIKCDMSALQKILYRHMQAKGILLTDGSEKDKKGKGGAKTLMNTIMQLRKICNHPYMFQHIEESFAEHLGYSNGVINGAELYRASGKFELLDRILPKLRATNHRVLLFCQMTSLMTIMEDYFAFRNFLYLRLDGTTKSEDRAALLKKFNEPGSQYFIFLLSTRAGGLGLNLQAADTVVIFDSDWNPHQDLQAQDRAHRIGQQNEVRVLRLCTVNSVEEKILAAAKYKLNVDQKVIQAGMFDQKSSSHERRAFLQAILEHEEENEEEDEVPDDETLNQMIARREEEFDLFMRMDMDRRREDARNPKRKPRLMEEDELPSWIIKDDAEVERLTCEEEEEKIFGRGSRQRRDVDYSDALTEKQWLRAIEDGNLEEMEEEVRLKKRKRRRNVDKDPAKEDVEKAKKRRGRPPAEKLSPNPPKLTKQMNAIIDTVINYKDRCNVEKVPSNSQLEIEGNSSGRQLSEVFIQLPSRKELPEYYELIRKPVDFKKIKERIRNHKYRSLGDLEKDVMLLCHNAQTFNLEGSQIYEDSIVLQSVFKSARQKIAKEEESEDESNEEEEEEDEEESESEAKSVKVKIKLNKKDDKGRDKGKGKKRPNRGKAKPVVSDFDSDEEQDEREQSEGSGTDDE

For `CC(C)[C@@H](C(=O)N1C[C@H](O)C[C@H]1C(=O)N[C@@H](C)c1ccc(Cl)cc1)c1cc(N2CCC(CN3CCC(O[C@H]4C[C@H](Oc5cc(N6C7CCC6CN(c6cc(-c8ccccc8O)nnc6N)C7)ccn5)C4)CC3)CC2)no1` (relative stereo) [Compound 48, (2S,4R)-N-[(1S)-1-(4-chlorophenyl)ethyl]-4-hydroxy-1-[(2R*)-3-methyl-2-{3-[4-({4-[(1rs,3rs)-3-[(4-{3-[3-amino-6-(2-hydroxyphenyl)pyridazin-4-yl]-3,8-diazabicyclo[3.2.1]octan-8-yl}pyridin-2-yl)oxy]cyclobutoxy]piperidin-1-yl}methyl)piperidin-1-yl]-1,2-oxazol-5-yl}butanoyl]pyrrolidine-2-carboxamide], the DC50 – broadly, the midpoint of the concentration-degradation curve – lay within 10 to 30 nM and the greatest degradation seen (Dmax) (usually the greatest extent of degradation seen) was more than 75%.
As for `Cc1ncsc1-c1ccc([C@H](C)NC(=O)[C@@H]2C[C@@H](O)CN2C(=O)[C@@H](c2cc(N3CCC(CN4CCC(O[C@H]5C[C@@H](N6CCC([C@@H](C)n7cc(-c8cc(-c9ccccc9O)nnc8N)cn7)CC6)C5)CC4)CC3)no2)C(C)C)cc1` (single isomer, unassigned) [Compound 6], the DC50 was less than 2.5 nM and the greatest degradation seen (Dmax) is more than 75%.
For `Cc1ncsc1-c1ccc([C@H](C)NC(=O)[C@@H]2C[C@@H](O)CN2C(=O)[C@@H](c2cc(N3CCC(CN4CCC(O[C@H]5C[C@H](N6CCC([C@@H](C)n7cc(-c8cc(-c9ccccc9O)nnc8N)cn7)CC6)C5)CC4)CC3)no2)C(C)C)cc1` (single isomer, unassigned) [Compound 7], the DC50 was less than 2.5 nM and the greatest degradation seen (Dmax) was more than 75%.
`Cc1ncsc1-c1ccc([C@H](C)NC(=O)C2C[C@@H](O)CN2C(=O)[C@@H](c2cc(N3CCC(CN4CC[C@@H](Oc5cc(N6C7CCC6CN(c6cc(-c8ccccc8O)nnc6N)C7)ccn5)[C@@H](F)C4)CC3)no2)C(C)C)cc1` (stereo in doubt) [Compound 49, (2S,4R)-1-[(2R)-2-[3-(4-{[(3S,4R)-4-[(4-{3-[3-amino-6-(2-hydroxyphenyl)pyridazin-4-yl]-3,8-diazabicyclo[3.2.1]octan-8-yl}pyridin-2-yl)oxy]-3-fluoropiperidin-1-yl]methyl}piperidin-1-yl)-1,2-oxazol-5-yl]-3-methylbutanoyl]-4-hydroxy-N-[(1S)-1-[4-(4-methyl-1,3-thiazol-5-yl)phenyl]ethyl]pyrrolidine-2-carboxamide]: the half-maximal degradation concentration (DC50) was less than 2.5 nM and the Dmax is more than 75%.
For `Cc1ncsc1-c1ccc([C@H](C)NC(=O)C2C[C@@H](O)CN2C(=O)[C@@H](c2cc(N3CCC(CN4CC[C@H](Oc5cc(N6C7CCC6CN(c6cc(-c8ccccc8O)nnc6N)C7)ccn5)[C@H](F)C4)CC3)no2)C(C)C)cc1` (stereo in doubt) [Compound 50, (2S,4R)-1-[(2R)-2-[3-(4-{[(3R,4S)-4-[(4-{3-[3-amino-6-(2-hydroxyphenyl)pyridazin-4-yl]-3,8-diazabicyclo[3.2.1]octan-8-yl}pyridin-2-yl)oxy]-3-fluoropiperidin-1-yl]methyl}piperidin-1-yl)-1,2-oxazol-5-yl]-3-methylbutanoyl]-4-hydroxy-N-[(1S)-1-[4-(4-methyl-1,3-thiazol-5-yl)phenyl]ethyl]pyrrolidine-2-carboxamide], the DC50 was less than 2.5 nM and the greatest degradation seen (Dmax) was more than 75%.
`Cc1ncsc1-c1ccc([C@H](C)NC(=O)C2C[C@@H](O)CN2C(=O)[C@@H](c2cc(N3CCC(CN4CC[C@@H](Oc5cc(N6C7CCC6CN(c6cc(-c8ccccc8O)nnc6N)C7)ccn5)C(F)(F)C4)CC3)no2)C(C)C)cc1` (stereo in doubt) [Compound 53, (2S,4R)-1-[(2R)-2-[3-(4-{[(4R)-4-[(4-{3-[3-amino-6-(2-hydroxyphenyl)pyridazin-4-yl]-3,8-diazabicyclo[3.2.1]octan-8-yl}pyridin-2-yl)oxy]-3,3-difluoropiperidin-1-yl]methyl}piperidin-1-yl)-1,2-oxazol-5-yl]-3-methylbutanoyl]-4-hydroxy-N-[(1S)-1-[4-(4-methyl-1,3-thiazol-5-yl)phenyl]ethyl]pyrrolidine-2-carboxamide]: the DC50 lay in the range of 2.5 to 10 nM and the Dmax is more than 75%.
For the compound `Cc1ncsc1-c1ccc([C@H](C)NC(=O)C2C[C@@H](O)CN2C(=O)[C@@H](c2cc(N3CCC(CN4CC[C@H](Oc5cc(N6C7CCC6CN(c6cc(-c8ccccc8O)nnc6N)C7)ccn5)C(F)(F)C4)CC3)no2)C(C)C)cc1` (stereo in doubt) [Compound 54, (2S,4R)-1-[(2R)-2-[3-(4-{[(4S)-4-[(4-{3-[3-amino-6-(2-hydroxyphenyl)pyridazin-4-yl]-3,8-diazabicyclo[3.2.1]octan-8-yl}pyridin-2-yl)oxy]-3,3-difluoropiperidin-1-yl]methyl}piperidin-1-yl)-1,2-oxazol-5-yl]-3-methylbutanoyl]-4-hydroxy-N-[(1S)-1-[4-(4-methyl-1,3-thiazol-5-yl)phenyl]ethyl]pyrrolidine-2-carboxamide], the DC50 lay within 2.5 to 10 nM and the maximal degradation (Dmax) is more than 75%.
As for `CC(C)[C@H](C(=O)N1C[C@H](O)C[C@H]1C(=O)N[C@@H](C)c1ccc(C#N)cc1)c1cc(O[C@H]2C[C@H](CN3CCC(O[C@H]4C[C@H](Oc5cc(N6C7CCC6CN(c6cc(-c8ccccc8O)nnc6N)C7)ccn5)C4)CC3)C2)no1` [Compound 1, (2S,4R)-N-[(1S)-1-(4-cyanophenyl)ethyl]-4-hydroxy-1-[(2S)-3-methyl-2-{3-[(1r,3r)-3-({4-[(1r,3r)-3-[(4-{3-[3-amino-6-(2-hydroxyphenyl)pyridazin-4-yl]-3,8-diazabicyclo[3.2.1]octan-8-yl}pyridin-2-yl)oxy]cyclobutoxy]piperidin-1-yl}methyl)cyclobutoxy]-1,2-oxazol-5-yl}butanoyl]pyrrolidine-2-carboxamide], the DC50 was not below 30 nM.
The compound `CC(C)[C@H](C(=O)N1C[C@H](O)C[C@H]1C(=O)N[C@@H](C)c1ccc(-c2ccnn2C)cc1)c1cc(N2CCC(CN3CCC(O[C@H]4C[C@H](Oc5cc(N6CCN(c7cc(-c8ccccc8O)nnc7N)CC6)ccn5)C4)CC3)CC2)no1` [Compound 2, (2S,4R)-4-hydroxy-N-[(1S)-1-[4-(1-methyl-1H-pyrazol-5-yl)phenyl]ethyl]-1-[(2S)-3-methyl-2-{3-[4-({4-[(1r,3r)-3-[(4-{4-[3-amino-6-(2-hydroxyphenyl)pyridazin-4-yl]piperazin-1-yl}pyridin-2-yl)oxy]cyclobutoxy]piperidin-1-yl}methyl)piperidin-1-yl]-1,2-oxazol-5-yl}butanoyl]pyrrolidine-2-carboxamide] showed a half-maximal degradation concentration (DC50) not below 30 nM.
The same measure, in the same setting: the result for `CC(C)[C@@H](C(=O)N1C[C@H](O)C[C@H]1C(=O)N[C@H](C)c1cc(F)c(C#N)cc1F)c1cc(N2CCC(CN3CCC(O[C@H]4C[C@H](Oc5cc(N6C7CCC6CN(c6cc(-c8ccccc8O)nnc6N)C7)ccn5)C4)CC3)CC2)no1` [Compound 3, (2S,4R)-N-[(1R)-1-(4-cyano-2,5-difluorophenyl)ethyl]-4-hydroxy-1-[(2R)-3-methyl-2-{3-[4-({4-[(1r,3r)-3-[(4-{3-[3-amino-6-(2-hydroxyphenyl)pyridazin-4-yl]-3,8-diazabicyclo[3.2.1]octan-8-yl}pyridin-2-yl)oxy]cyclobutoxy]piperidin-1-yl}methyl)piperidin-1-yl]-1,2-oxazol-5-yl}butanoyl]pyrrolidine-2-carboxamide] reads not below 30 nM.
